Drawing on patent US20250304551A1 (SHANGHAI APEIRON THERAPEUTICS COMPANY LIMITED, priority 2022, published 2025), this text covers IC50 for 18 compounds.

In experiment [1] the target is T1, Human KIF18A (amino acid sequence 1-417) (Homo sapiens, UniProt Q8NI77).
T1 construct: purchased Viva Biotech (Shanghai) Ltd
Description: Enzyme activity detection experiment (ADP-Glo, KIF18A with tubulin and ATP). It counts as biochemical. Conditions: tubulin 60 μg/mL, ATP 25 μM, KIF18A protein 2.5 nM, 120 minutes at ambient temperature, ADP-Glo chemiluminescence. As to the method: Materials: Human KIF18A (amino acid sequence 1-417) was obtained from Viva Biotech (Shanghai) Ltd., and the ADP-Glo™ protein kinase kit was acquired from Promega, USA. Tubulin was sourced from Cytoskeleton, USA, while a 384-well assay plate and the Envision multifunctional microplate reader were obtained from PerkinElmer, USA.
Enzyme activity detection: The compound powder in DMSO was firstly dissolved to prepare a 10 mM stock solution. Next, gradient dilutions were prepared in the microplate to achieve final concentrations of […]. Sequentially, 2.5 μL of tubulin (60 μg/mL), the compound, ATP (25 μM), and KIF18A protein (2.5 nM) were added to each well, and the reaction was incubated at ambient temperature for 120 minutes. After the reaction, 10 μL of ADP-Glo™ reagent was added to each well and incubated at ambient temperature for 30 minutes. Subsequently, 20 μL of detection reagent was added to each well and incubated for an additional 30 minutes in the dark. Finally, chemiluminescence detection was performed using the PerkinElmer Envision multifunctional microplate reader.
For orientation: In ADP-Glo the light output rises with the ADP produced.

The test system of a further experiment is OVCAR3 cells. Description: Cell proliferation activity test, OVCAR3 (CyQUANT Direct). Format: cell-based. Conditions: Homo sapiens, OVCAR-3, 72 h, 3 days incubation, CyQUANT fluorescence detection, read-out: OVCAR-3 Cell Viability_IC50_nM. As to the method: Materials and Cells: OVCAR3 cells were purchased from Nanjing Cobioer Biosciences Co., Ltd. RPMI-1640 medium, fetal bovine serum, and the CyQUANT Direct Cell Proliferation Assay kit were purchased from Thermo Fisher Scientific, USA; 96-well cell culture plates were sourced from Corning, USA.
Cell Culture: Culture OVCAR3 cells with RPMI-1640 medium containing […] and incubate them in a […] incubator at 37° C. Only cells in the logarithmic growth phase can be used for the test.
Inoculate OVCAR3 cells into a 96-well cell culture plate at 90 μL per well and incubate overnight in a […] incubator at 37° C. Dissolve the compound powder in DMSO to prepare a stock solution of 10 mM. Then perform gradient dilution for the compounds in the microplate to achieve a final concentration of 0-10 μM. Add 10 μL of cell culture medium containing compounds to each well to make the final DMSO content 0.20%. Incubate the cell plates in a […] incubator at 37° C. for 3 days. Add 100 μL of CyQUANT detection reagent to each well, react at 37° C. for 60 min, and perform fluorescence detection using the PerkinElmer Envision.

T1 sequence (Q8NI77 1-417): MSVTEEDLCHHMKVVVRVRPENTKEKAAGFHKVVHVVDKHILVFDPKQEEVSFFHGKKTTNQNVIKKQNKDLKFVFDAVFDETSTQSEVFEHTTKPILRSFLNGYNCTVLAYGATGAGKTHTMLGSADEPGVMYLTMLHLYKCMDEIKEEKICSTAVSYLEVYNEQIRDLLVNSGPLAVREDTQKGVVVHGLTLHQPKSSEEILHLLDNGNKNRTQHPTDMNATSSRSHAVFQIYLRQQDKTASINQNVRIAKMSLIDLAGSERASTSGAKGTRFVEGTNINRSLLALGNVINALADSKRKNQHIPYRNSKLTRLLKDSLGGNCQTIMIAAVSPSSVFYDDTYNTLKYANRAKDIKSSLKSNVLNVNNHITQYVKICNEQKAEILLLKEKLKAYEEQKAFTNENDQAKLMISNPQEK
T1 sequence (Q2XVP4 whole entry partner): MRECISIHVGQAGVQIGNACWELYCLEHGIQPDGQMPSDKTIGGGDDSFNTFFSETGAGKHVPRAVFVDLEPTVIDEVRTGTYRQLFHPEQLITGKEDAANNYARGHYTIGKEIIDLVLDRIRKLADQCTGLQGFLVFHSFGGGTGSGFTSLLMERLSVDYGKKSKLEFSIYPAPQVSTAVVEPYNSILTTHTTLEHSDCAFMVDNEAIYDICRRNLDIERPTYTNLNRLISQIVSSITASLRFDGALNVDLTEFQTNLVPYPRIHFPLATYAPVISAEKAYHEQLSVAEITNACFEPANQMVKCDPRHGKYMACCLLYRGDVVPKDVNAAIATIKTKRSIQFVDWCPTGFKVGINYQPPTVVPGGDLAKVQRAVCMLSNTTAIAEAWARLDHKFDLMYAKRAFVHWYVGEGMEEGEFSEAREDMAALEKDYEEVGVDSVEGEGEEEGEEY
T1 sequence (P02554 whole entry partner): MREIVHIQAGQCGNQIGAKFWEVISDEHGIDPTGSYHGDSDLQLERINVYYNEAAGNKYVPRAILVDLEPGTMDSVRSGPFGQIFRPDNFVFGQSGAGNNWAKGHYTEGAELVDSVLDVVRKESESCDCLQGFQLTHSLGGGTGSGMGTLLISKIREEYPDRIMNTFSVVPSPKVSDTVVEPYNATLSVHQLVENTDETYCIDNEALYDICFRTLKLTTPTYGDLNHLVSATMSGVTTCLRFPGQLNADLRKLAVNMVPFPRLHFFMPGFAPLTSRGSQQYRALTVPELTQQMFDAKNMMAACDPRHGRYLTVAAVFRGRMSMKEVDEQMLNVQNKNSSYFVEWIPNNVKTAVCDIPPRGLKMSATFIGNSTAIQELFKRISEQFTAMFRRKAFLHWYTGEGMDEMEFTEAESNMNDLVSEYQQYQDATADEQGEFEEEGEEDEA

With `Cc1cc(-c2cc(-c3ccc(NS(=O)(=O)CCO)cc3N3CCC4(CC3)CC4)on2)nc(N2CCC(F)(F)CC2)n1` [Example 5, N-(4-(3-(2-(4,4-difluoropiperidin-1-yl)-6-methylpyrimidin-4-yl)isoxazol-5-yl)-3-(6-azaspiro[2.5]octan-6-yl)phenyl)-2-hydroxyethane-1-sulfonamide], the IC50 in experiment [1] was found to be 1050 nM; in the experiment on OVCAR3 cells, 389 nM.

Turning to `Cc1cc(-c2cc(-c3ccc(NS(=O)(=O)CCO)cc3N3CCC4(CC3)CC4)n[nH]2)nc(N2CCC(F)(F)CC2)n1` [Example 6, N-(4-(5-(2-(4,4-difluoropiperidin-1-yl)-6-methylpyrimidin-4-yl)-1H-pyrazol-3-yl)-3-(6-azaspiro[2.5]octan-6-yl)phenyl)-2-hydroxyethane-1-sulfonamide], the results for the IC50 (in experiment [1]; with OVCAR3 cells) were 1090 nM and 257 nM, respectively.

For the compound `Cc1cc(-c2cn(-c3ccc(NS(=O)(=O)CCO)cc3N3CCC4(CC3)CC4)nn2)nc(C2=COCCO2)n1` [Example 38, N-(4-(4-(2-(5,6-dihydro-1,4-dioxin-2-yl)-6-methylpyrimidin-4-yl)-1H-1,2,3-triazol-1-yl)-3-(6-azaspiro[2.5]octan-6-yl)phenyl)-2-hydroxyethane-1-sulfonamide], the IC50 was found to be 452 nM in experiment [1] and 424 nM with OVCAR3 cells.

With `Cc1cc(-c2cn(-c3ccc(NS(=O)(=O)CCO)cc3N3CCC4(CC3)CC4)nn2)nc(C2COCCO2)n1` (stereo not shown) [Example 40, N-(4-(4-(2-(1,4-dioxan-2-yl)-6-methylpyrimidin-4-yl)-1H-1,2,3-triazol-1-yl)-3-(6-azaspiro[2.5]octan-6-yl)phenyl)-2-hydroxyethane-1-sulfonamide], the IC50 in experiment [1] is above 3000 nM; in the experiment with OVCAR3 cells, 411 nM.

In the case of `Cc1cc(-c2cn(-c3ccc(NS(=O)(=O)CCO)cc3N3CCC4(CC3)CC4)nn2)nc(N2CC3CC2CO3)n1` (stereo not shown) [Example 47, N-(4-(4-(2-(2-oxa-5-azabicyclo[2.2.1]heptan-5-yl)-6-methylpyrimidin-4-yl)-1H-1,2,3-triazol-1-yl)-3-(6-azaspiro[2.5]octan-6-yl)phenyl)-2-hydroxyethane-1-sulfonamide], the IC50 in experiment [1] turned out to be 64 nM; in the experiment on OVCAR3 cells it was 37 nM.

As for `Cc1ccc2cc(-c3cn(-c4ccc(NS(=O)(=O)CCO)cc4N4CCC5(CC4)CC5)nn3)c(F)c(N3CCC(F)(F)CC3)c2n1` [Example 75, N-(3-{6-azaspiro[2.5]octan-6-yl}-4-{4-[8-(4,4-difluoropiperidin-1-yl)-7-fluoro-2-methylquinolin-6-yl]-1H-1,2,3-triazol-1-yl}phenyl)-2-hydroxyethane-1-sulfonamide], the figures for the IC50 (in experiment [1]; with OVCAR3 cells) were above 3000 nM and 300 nM, respectively.

For `O=S(=O)(CCO)Nc1ccc(-n2cc(-c3cc(OCCO)nc(N4CCC(F)(F)CC4)n3)nn2)c(N2CCC3(CC2)CC3)c1` [Example 95, N-(3-{6-azaspiro[2.5]octan-6-yl}-4-{4-[2-(4,4-difluoropiperidin-1-yl)-6-(2-hydroxyethoxy)pyrimidin-4-yl]-1H-1,2,3-triazol-1-yl}phenyl)-2-hydroxyethane-1-sulfonamide], the IC50 in experiment [1] was found to be 73 nM; in the experiment with OVCAR3 cells it was 7 nM.

In experiment [1], `O=S(=O)(CCO)Nc1ccc(-n2cc(-c3cc(OC4CCOC4)nc(N4CCC(F)(F)CC4)n3)nn2)c(N2CCC3(CC2)CC3)c1` (stereo not shown) [Example 96, N-(3-{6-azaspiro[2.5]octan-6-yl}-4-{4-[2-(4,4-difluoropiperidin-1-yl)-6-(oxolan-3-yloxy)pyrirmidin-4-yl]-1H-1,2,3-triazol-1-yl}phenyl)-2-hydroxyethane-1-sulfonamide] had an IC50 of 117 nM.

As for `O=S(=O)(CCO)Nc1ccc(-n2cc(-c3cc(OCC4CCOC4)nc(N4CCC(F)(F)CC4)n3)nn2)c(N2CCC3(CC2)CC3)c1` (stereo not shown) [Example 97, N-(3-(6-azaspiro[2.5]octan-6-yl)-4-{4-[2-(4,4-difluoropiperidin-1-yl)-6-[(oxolan-3-yl)methoxy]pyrimidin-4-yl]-1-1,2,3-triazol-1-yl}phenyl)-2-hydroxyethane-1-sulfonamide], in experiment [1], the IC50 amounted to 234 nM.

`CCC(CO)S(=O)(=O)Nc1ccc(-n2cc(-c3cc(C)nc(N4CCC(F)(F)CC4)n3)nn2)c(N2CCC3(CC2)CC3)c1` (stereo not shown) [Example 98, N-(3-{6-azaspiro[2.5]octan-6-yl}-4-{4-[2-(4,4-difluoropiperidin-1-yl)-6-methylpyrimidin-4-yl]-1H-1,2,3-triazol-1-yl}phenyl)-1-hydroxybutane-2-sulfonamide]: in experiment [1], the IC50 stood at 154 nM.

Compound `C[C@H](CO)S(=O)(=O)Nc1ccc(-n2cc(-c3cc(N4CCC(F)(F)CC4)c4ncccc4c3)nn2)c(N2CCC3(CC2)CC3)c1` [Example 99, (2R)—N-(3-(6-azaspiro[2.5]octan-6-yl)-4-{4-[8-(4,4-difluoropiperidin-1-yl)quinolin-6-yl]-1H-1,2,3-triazol-1-yl}phenyl)-1-hydroxypropane-2-sulfonamide] registered an IC50 in experiment [1] of 214 nM.

The compound `C[C@@H](CO)S(=O)(=O)Nc1ccc(-n2cc(-c3cc(N4CCC(F)(F)CC4)c4ncccc4c3)nn2)c(N2CCC3(CC2)CC3)c1` [Example 100, (2S)—N-(3-{6-azaspiro[2.5]octan-6-yl}-4-{4-[8-(4,4-difluoropiperidin-1-yl)quinolin-6-yl]-1H-1,2,3-triazol-1-yl}phenyl)-1-hydroxypropane-2-sulfonamide] had an IC50 in experiment [1] of 187 nM.

Compound `CC(C)(CO)S(=O)(=O)Nc1ccc(-n2cc(-c3cc(N4CCC(F)(F)CC4)c4ncccc4c3)nn2)c(N2CCC3(CC2)CC3)c1` [Example 101, N-(4-(4-(8-(4,4-difluoropiperidin-1-yl)quinolin-6-yl)-1H-1,2,3-triazol-1-yl)-3-(6-azaspiro[2.5]octan-6-yl)phenyl)-1-hydroxy-2-methylpropane-2-sulfonamide] had an IC50 in experiment [1] of 320 nM.

In turn, `COc1cc(-c2nnc(-c3ccc(NS(=O)(=O)C(C)CO)cc3N3CCC4(CC3)CC4)o2)cc(N2CCC(F)(F)CC2)n1` (stereo not shown) [Example 102, N-(4-(5-(2-(4,4-difluoropiperidin-1-yl)-6-methoxypyridin-4-yl)-1,3,4-oxadiazol-2-yl)-3-(6-azaspiro[2.5]octan-6-yl)phenyl)-1-hydroxypropane-2-sulfonamide] yielded an IC50 in experiment [1] of 60 nM.

`Cc1cc(-c2nnc(-c3ccc(NS(=O)(=O)C(C)CO)cc3N3CCC4(CC3)CC4)o2)cc(N2CCC(F)(F)CC2)n1` (stereo not shown) [Example 103, N-(4-(5-(2-(4,4-difluoropiperidin-1-yl)-6-methylpyridin-4-yl)-1,3,4-oxadiazol-2-yl)-3-(6-azaspiro[2.5]octan-6-yl)phenyl)-1-hydroxypropane-2-sulfonamide] came in with an IC50 in experiment [1] of 73 nM.

`Cc1cc(-c2nnc(-c3ccc(NS(=O)(=O)C(C)(C)CO)cc3N3CCC4(CC3)CC4)o2)cc(N2CCC(F)(F)CC2)n1` [Example 104, N-(4-(5-(2-(4,4-difluoropiperidin-1-yl)-6-methylpyridin-4-yl)-1,3,4-oxadiazol-2-yl)-3-(6-azaspiro[2.5]octan-6-yl)phenyl)-1-hydroxy-2-methylpropane-2-sulfonamide] displayed an IC50 in experiment [1] of 83 nM.

With `COc1cc(-c2nnc(-c3ccc(NS(=O)(=O)C(C)(C)CO)cc3N3CCC4(CC3)CC4)o2)cc(N2CCC(F)(F)CC2)n1` [Example 105, N-(4-(5-(2-(4,4-difluoropiperidin-1-yl)-6-methoxypyridin-4-yl)-1,3,4-oxadiazol-2-yl)-3-(6-azaspiro[2.5]octan-6-yl)phenyl)-1-hydroxy-2-methylpropane-2-sulfonamide], the IC50 in experiment [1] stood at 62 nM.

With `Cc1cc2nc(-c3ccc(NS(=O)(=O)CCO)cc3N3CCC4(CC3)CC4)[nH]c2c(N2CCC(F)(F)CC2)n1` [Example 106, N-(4-(4-(4,4-difluoropiperidin-1-yl)-6-methyl-3H-imidazo[4,5-c]pyridin-2-yl)-3-(6-azaspiro[2.5]octan-6-yl)phenyl)-2-hydroxyethane-1-sulfonamide], in experiment [1], the IC50 came out at 210 nM.
